Experimental data reported in patent publication US10149817B2, “Topical skin treatment composition comprising dendranthema indicum extract” (AMOREPACIFIC CORPORATION, priority 2011, dated 2018).

Columns and labels:
collagenase = experiment: Inhibition of collagenase expression in human fibroblasts; format: cell-based; conditions: 10^−4 M test material, 24 hours, untreated group = 100
Procedure: The collagenase expression inhibitory activities of the Chrysanthemum indicum var. albescens extract prepared in Preparation Example 1 and the Chrysanthemum indicum extract prepared in Comparative Preparation Example 1 were measured comparatively with those of tocopherol and EGCG. Tocopherol and EGCG are antioxidant substances known to function to regenerate the epidermal cells of the skin to prevent the aging of the skin.
In the test, human fibroblasts were added to a 96-well microtiter plate containing 2.5% FBS-containing DMEM (Dulbecco's Modified Eagle's Media) medium at a density of 5,000 cells/well and were cultured to a confluence of about 90%. […]
The production of collagenase in the harvested cell cultures was measured using a commercially available collagenase measuring device (Amersham Pharmacia, USA). […]
The absorbance of the 96-well plate having a yellow color was measured at 405 nm using a spectrophotometer, and the degree of synthesis of collagenase was calculated using the following Equation 1. Herein, the absorbance of the cell culture broth harvested from the group not treated with the test material was used as a control. That is, the expression level of collagenase in the untreated group was set as 100, and the expression level of collagenase in the group treated with the test material was calculated relative to the untreated group. […]

[1] = tested on: C57BL/6 mouse melanocytes (Mel-Ab cells); experiment: Melanin production inhibitory effect using mouse melanocytes; format: cell-based; conditions: 25 ppm test material, three consecutive days, absorbance at 400 nm
Procedure: The melanin production inhibitory activities of the Chrysanthemum indicum var. albescens extract prepared in Preparation Example 1 and the Chrysanthemum indicum extract prepared in Comparative Preparation Example 1 were measured comparatively with those of the known whitening substance hydroquinone.
C57BL/6 mouse melanocytes (Mel-Ab cells) (Dooley, T. P. et al, Skin pharmacol, 7, pp 188-200) were cultured in DMEM, containing 10% fetal bovine serum, 100 nM 12-O-tetradecanoylphorbol-13-acetate and 1 nM cholera toxin, under the conditions of 37° C. and 5% CO2. The cultured Mel-Ab cells were detached with 0.25% trypsin-EDTA and cultured in a 24-well plate at a concentration of […]. Then, during three consecutive days from 2 days of culture, each of the test materials was added thereto and cultured. As the test materials, 25 ppm of each of the Chrysanthemum indicum var. albescens extract of Preparation Example 1, the Chrysanthemum indicum extract of Comparative Preparation Example 1, and hydroquinone were used. Herein, the hydroquinone was used as a positive control. […] The lysed cells were measured for absorbance at 400 nm, and based on the measured absorbance, the percent inhibition of melanin production was calculated according to the following equation 2. Percent inhibition of melanin production=100−(absorbance of test material/absorbance of control×100) Equation 2

[2] = tested on: skin of panels sensitive to irritation; experiment: Irritation test (stinging, burning) in panels sensitive to irritation; format: in vivo; conditions: 0.5 mL applied to skin, 15 panels
Procedure: In order to compare the sensory feeling of the Chrysanthemum indicum var. albescens extract of the present invention with that of the known whitening substance kojic acid, 15 panels sensitive to irritation, such as stinging, burning, etc., were subjected to a test for determining irritation, such as stinging, burning, etc.
Each test panel was allowed to apply 0.5 mL of each of kojic acid (available from YM Chemical Co.) and the Chrysanthemum indicum var. albescens extract to his/her skin randomly at the left side or right side, and then evaluate the test sample by grading from 0 to 3.0 at an interval of 0.1.
0.5-1.0: slight irritation;
1.1-2.0: mild irritation;
2.1-3.0: severe irritation.

[3] = grade 0 to 3.0 at interval of 0.1

O=C(O[C@@H]1Cc2c(O)cc(O)cc2O[C@@H]1c1cc(O)c(O)c(O)c1)c1cc(O)c(O)c(O)c1 [EGCG]
Collagenase expression level (%) (collagenase): 69%

Oc1ccc(O)cc1 [Hydroquinone, hydroquinone]
inhibition at 25 ppm [1]: 48.2%

O=c1cc(CO)occ1O [Kojic acid, kojic acid]
Irritation with respect to stinging and burning (in words) [2]: slight stinging and burning | Average (irritation grade of stinging and burning) ([2]; grade 0 to 3.0): 0.67 | Burning (irritation grade 0 to 3.0) [2, 3]: 0.43 | Stinging (irritation grade 0 to 3.0) [2, 3]: 0.91

tocopherol
Collagenase expression level (%) (collagenase): 76%
